# Legend:
# [1] = DOPR pharmacokinetics after SC administration; conditions: mouse, in vivo
# [2] = tested on: head twitch response (HTR); assay type: in vivo, mice; conditions: SC; higher and lower doses result in fewer HTRs
# Experimental: Male C57BL/6 mice (~7-9 weeks old) were used in these studies. Mice were housed 2 per cage under standard temperature- and humidity-controlled laboratory conditions with a 12-hour light/dark cycle. Mice had free access to food and water.
# Both compounds were dissolved in saline vehicle at a dose volume of 10 mL/kg. Doses were corrected for salt form so that the dose administered represented free base.
# Mice were randomly assigned to 1 of 6 treatment groups consisting of 2 subcutaneous injections (see Table 1), which were administered according to the schedule in FIG. 1. […] Behavior was videotaped by a camera (GoPro Hero 9) mounted above the testing chambers. Recorded video was uploaded for analysis of head twitch behavior. Number of head twitch responses (HTRs) was recorded for each animal for each 2-min bin. For each treatment group, the mean number of HTRs in each 2- or 10-min bin, and across the whole 30-min recording period, were analyzed.
# 5-HT2A receptor = molecular target: T1, 5-HT2A receptor (Mus musculus, UniProt P35363); experiment: Ex vivo occupancy of cortical 5-HT2A receptors by DOPR, [3H]MDL100,907 autoradiography; assay type: in vivo, mice; conditions: for receptor occupancy at 0.32 mg/kg / receptor occupancy at 1 mg/kg / receptor occupancy at 3.2 mg/kg / receptor occupancy at 32 mg/kg: mouse, sc
# T1 construct: Coronal sections containing the frontal cortex were be cut (20 μm thick) using a cryostat; from tissue; host or cells: frontal cortex sections of male C57BL/6 mouse brain
# T1 sequence (P35363 whole entry): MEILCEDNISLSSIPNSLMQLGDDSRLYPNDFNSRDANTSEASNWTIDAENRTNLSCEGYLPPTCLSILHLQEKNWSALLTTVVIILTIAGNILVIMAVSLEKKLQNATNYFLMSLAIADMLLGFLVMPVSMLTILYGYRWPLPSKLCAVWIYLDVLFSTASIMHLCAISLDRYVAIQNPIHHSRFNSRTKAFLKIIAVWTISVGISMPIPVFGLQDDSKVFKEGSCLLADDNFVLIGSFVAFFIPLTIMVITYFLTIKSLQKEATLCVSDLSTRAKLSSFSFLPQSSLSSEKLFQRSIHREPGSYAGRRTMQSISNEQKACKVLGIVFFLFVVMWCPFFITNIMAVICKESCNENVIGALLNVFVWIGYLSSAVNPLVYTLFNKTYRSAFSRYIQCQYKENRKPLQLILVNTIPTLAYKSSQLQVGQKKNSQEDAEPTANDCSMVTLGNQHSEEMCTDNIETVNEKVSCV
# Experimental: Mice had free access to food and water. Animals were randomly assigned to treatment groups.
# Doses were calculated based on the HCl salt. MDL100,907 [methyl-^3H] was purchased from Novandi Chemistry. Ketanserin was purchased from Tocris (UK).
# Mice were dosed with vehicle or DOPR (0.32, 1, 3.2, or 32 mg/kg, SC) and sacrificed at 15 or 60 minutes after dosing (n=5 per dose/time condition) by a rising CO2 concentration followed by cervical dislocation. Whole brains were removed, rinsed briefly with saline, and blot dried. A coronal cut was made at the level of the optic chiasm to produce an anterior brain block containing the frontal cortex (according to the Mouse Brain in Stereotaxic Coordinates, Paxinos and Franklin, second edition). The anterior brain block was then cut down the midline, both blocks were placed onto cork disks, covered with OCT embedding matrix (KMA-0100-00A, Cell Path), rapidly frozen in isopentane (cooled to −20/−30° C.) and stored at −20° C. for sectioning and ex vivo autoradiography. Coronal sections containing the frontal cortex were be cut (20 μm thick) using a cryostat and thaw mounted onto Superfrost plus slides and the slides were stored at −20° C. until the day of assay.
# Slides containing brain sections were warmed to room temperature and sections were isolated using a DAKO pen and incubated at room temperature for 30 minutes in 200 μL of assay buffer containing 0.2 nM [^3H]MDL100,907 (total binding) or 0.2 nM [^3H]MDL100,907 and […] ketanserin (non-specific binding). Solutions were removed from the sections by aspiration and the slides were washed for two consecutive 5-minute periods in ice-cold wash buffer. The slides were then rinsed briefly in ice-cold distilled water to remove buffer salts and allowed to air dry. The assay and wash buffer consisted of 50 mM Tris, pH 7.4. The binding assay was performed on two separate occasions.
# The waxy residue of the DAKO pen was removed with xylene to prevent sparks in the β-imager. Lint-free tissue and an air duster was used to remove any dust particles from the microscope slides. To make the slides conductive, copper foil tape was adhered to the free side of the microscope slides. The slides were placed in the β-imager and the levels of bound radioactivity in the sections were directly determined by counting the number of β-particles emerging from the delineated area using the M3 vision program (BioSpace). Data was collected from the brain sections over 16 hours and expressed in counts per minute per square millimetre (cpm/mm^2). A value for specific binding (cpm/mm^2) was generated by the subtraction of mean non-specific binding (cpm/mm^2) from mean total binding (cpm/mm^2) for each animal.
smiles,measurement,setting,value
"CCCc1cc(OC)c(CC(C)N)cc1OC (stereo not drawn) [DOPR, 2,5-dimethoxy-4-propylamphetamine]",Tmax,[1],1 h
same,dose maximally efficacious for induction of HTR,[2],3.2 mg/kg
same,Specific Binding (% of Vehicle),"5-HT2A receptor; DOPR 0.32 mg/kg SC, 15 min",105 % of Vehicle
same,"Specific binding, Mean (SEM)","5-HT2A receptor; DOPR 0.32 mg/kg SC, 15 min",1.39 (0.06) cpm/mm^2
same,Specific Binding (% of Vehicle),"5-HT2A receptor; DOPR 0.32 mg/kg SC, 60 min",93 % of Vehicle
same,"Specific binding, Mean (SEM)","5-HT2A receptor; DOPR 0.32 mg/kg SC, 60 min",1.23 (0.08) cpm/mm^2
same,Specific Binding (% of Vehicle),"5-HT2A receptor; DOPR 1 mg/kg SC, 15 min",104 % of Vehicle
same,"Specific binding, Mean (SEM)","5-HT2A receptor; DOPR 1 mg/kg SC, 15 min",1.38 (0.06) cpm/mm^2
same,Specific Binding (% of Vehicle),"5-HT2A receptor; DOPR 1 mg/kg SC, 60 min",67 % of Vehicle
same,"Specific binding, Mean (SEM)","5-HT2A receptor; DOPR 1 mg/kg SC, 60 min",0.88 (0.07) cpm/mm^2
same,Specific Binding (% of Vehicle),"5-HT2A receptor; DOPR 3.2 mg/kg SC, 15 min",71 % of Vehicle
same,"Specific binding, Mean (SEM)","5-HT2A receptor; DOPR 3.2 mg/kg SC, 15 min",0.93 (0.09) cpm/mm^2
same,Specific Binding (% of Vehicle),"5-HT2A receptor; DOPR 3.2 mg/kg SC, 60 min",43 % of Vehicle
same,"Specific binding, Mean (SEM)","5-HT2A receptor; DOPR 3.2 mg/kg SC, 60 min",0.57 (0.05) cpm/mm^2
same,Specific Binding (% of Vehicle),"5-HT2A receptor; DOPR 32 mg/kg SC, 15 min",18 % of Vehicle
same,"Specific binding, Mean (SEM)","5-HT2A receptor; DOPR 32 mg/kg SC, 15 min",0.23 (0.04) cpm/mm^2
same,Specific Binding (% of Vehicle),"5-HT2A receptor; DOPR 32 mg/kg SC, 60 min",8 % of Vehicle
same,"Specific binding, Mean (SEM)","5-HT2A receptor; DOPR 32 mg/kg SC, 60 min",0.10 (0.01) cpm/mm^2
same,dose calculated to occupy 50% of 5-HT2A receptors,"5-HT2A receptor; SC, mice",2.08 mg/kg
same,receptor occupancy at 0.32 mg/kg,"5-HT2A receptor; DOPR 0.32 mg/kg SC, 15 min",-5%
same,receptor occupancy at 0.32 mg/kg,"5-HT2A receptor; DOPR 0.32 mg/kg SC, 60 min",7%
same,receptor occupancy at 1 mg/kg,"5-HT2A receptor; DOPR 1 mg/kg SC, 15 min",-4%
same,receptor occupancy at 1 mg/kg,"5-HT2A receptor; DOPR 1 mg/kg SC, 60 min",33%
same,receptor occupancy at 3.2 mg/kg,"5-HT2A receptor; DOPR 3.2 mg/kg SC, 15 min",29%
same,receptor occupancy at 3.2 mg/kg,"5-HT2A receptor; DOPR 3.2 mg/kg SC, 60 min",57%
same,receptor occupancy at 32 mg/kg,"5-HT2A receptor; DOPR 32 mg/kg SC, 15 min",82%
same,receptor occupancy at 32 mg/kg,"5-HT2A receptor; DOPR 32 mg/kg SC, 60 min",92%
